The values that follow come from US12643858B2 (Inipharm, Inc., priority 2020, dated 2026).

The IC50 is the point on the concentration scale where inhibition reaches its midpoint. Higher therefore signals a need for much substance.

The target of test [1] is T1, HSD17B13 enzyme (Homo sapiens, UniProt Q7Z5P4).
T1 construct: His; made in house; host or cells: E. coli
T1 sequence (Q7Z5P4 20-300): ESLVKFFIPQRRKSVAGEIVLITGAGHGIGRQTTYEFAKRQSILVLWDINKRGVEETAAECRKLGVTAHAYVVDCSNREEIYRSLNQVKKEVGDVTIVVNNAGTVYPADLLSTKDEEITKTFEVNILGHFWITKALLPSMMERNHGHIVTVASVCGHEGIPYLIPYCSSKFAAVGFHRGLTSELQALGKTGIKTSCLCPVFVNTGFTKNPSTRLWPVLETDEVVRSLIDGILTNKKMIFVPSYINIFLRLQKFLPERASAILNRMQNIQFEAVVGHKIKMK
Briefly: NADH detection assay (fluorescence based LTB3 assay) for HSD17B13 activity. It counts as biochemical. As to conditions: substrate 25 μM LTB3, 3 mM NAD+, 125 nM HSD17B13 enzyme, 1 hour at 26.5° C. The essentials:
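E. coli-expressed His-tagged HSD17B13 (125 nM) with 25 μM LTB3 and 3 mM NAD+ in 1 M potassium phosphate pH 7.4, 1% DMSO, 1 h at 26.5 °C. NADH fluorescence (Ex 340/Em 445 nm) minus t=0 baseline and no-LTB3 controls, converted via NADH standards. IC50 from four-parameter fits over ten concentrations (30 μM-2.5 nM), duplicate runs.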

Test [2] deals with T1, HSD17B13 enzyme. Briefly: Estrone detection assay (LC/MS, estradiol to estrone conversion) for HSD17B13 activity. It is filed as biochemical. As to conditions: substrate 4 μM Estradiol, 6 mM NAD+, 30 nM HSD17B13 enzyme, 2 hours at 26.5° C. The procedure:
Example B: Estrone Detection Assay for Evaluation of HSD17ß13 Activity and Identification of Inhibitors
The liquid chromatography/mass spectrometry (LC/MS) estrone detection assay monitors the conversion of estradiol to estrone by HSD17B13. This assay was undertaken in a 96wp format (Eppendorf deep well Plate 96/500) in an 80 μl reaction volume containing: 4 μM of Estradiol (E2; Cayman; Ser. No. 10/006,315), 6 mM NAD+(Sigma; #N0623) and 30 nM HSD17B13 enzyme (in-house; E. coli expressed His-tagged, purified, soluble protein) in a reaction containing […] potassium phosphate buffer pH 7.4, with 0.5% vehicle (DMSO). Reactions were incubated for 2 hours at 26.5° C., and estradiol (E2) conversion to estrone (E1) was quantitated by LC-MS/MS based analyte detection for both E2 and E1 using LCMS grade reagents.
Reactions were terminated by the addition of two volumes of acetonitrile (MeCN; LCMS grade; CAS #75/05/8) containing deuterated (D4)-E1 used as internal standard (Clear Synth; #CS-T-54273; 500 ng/mL final concentration). Samples were applied to pre-prepared Bond Elut-C18 extraction cartridges (3 mL; Agilent; Ser. No. 12/102,028), washed and eluted in MeCN. Eluates were dried under nitrogen and re-suspended in 60% methanol (LCMS grade methanol; CAS #67/56/1) before submission for analysis. Aqueous linearity for E2 and E1 were included for quantification.
Analysis of samples was undertaken on a XBridge BEH C18 column (Waters; #186003033) using 0.1% Diethyl Amine in MeCN (mobile phase A; DEA CAS #109-89-7) and 0.1% Diethyl Amine in milli-Q water (mobile phase B) in a 3 min gradient allowing 25% B. Analytes were detected in negative mode using MRM analysis, with E2 having a RT of 1.85 min and E1 having a RT of 2 min. Activity of the enzyme, in the absence of NAD+, was used to evaluate specificity of conversion. Enzyme activity in the presence of test samples was expressed as a percentage of the uninhibited enzyme activity, and plotted versus inhibitor concentration. Non-linear regression was performed using a four-parameter logistic model and GraphPad Prism software (GraphPad Software, La Jolla, CA). All assessments were undertaken in duplicate evaluations and pooled during extraction process and subsequently injected as duplicates for LC-MS/MS analysis.

SMILES strings stand for the structures.

`COc1ccc(-c2cccc(Oc3ccc(F)c(O)c3)n2)cc1` [Example 102, 2-fluoro-5-((6-(4-methoxyphenyl)pyridin-2-yl)oxy)phenol] registered an IC50 on HSD17B13 enzyme [1] of 10 to 30 µM. `Oc1cc(Oc2cccc(-c3cccc(C(F)(F)F)c3)n2)ccc1F` [Example 103, 2-fluoro-5-((6-(3-(trifluoromethyl)phenyl)pyridin-2-yl)oxy)phenol]: the IC50 against HSD17B13 enzyme [1] was 5 to 10 µM. Still for that read-out and setting: then `N#Cc1cccc(-c2cccc(Oc3ccc(F)c(O)c3)n2)c1` [Example 104, 3-(6-(4-fluoro-3-hydroxyphenoxy)pyridin-2-yl)benzonitrile], with 10 to 30 µM; and `COc1cccc(-c2cccc(Oc3ccc4cn[nH]c4c3)n2)c1F` [Example 105, 6-{[6-(2-fluoro-3-methoxyphenyl)pyridin-2-yl]oxy}-1H-indazole], with above 30 µM.

Consider `CC(=O)Nc1cc(Oc2cccc(-c3cccc(O)c3F)n2)ccc1F` [Example 106, N-(2-fluoro-5-{[6-(2-fluoro-3-hydroxyphenyl)pyridin-2-yl]oxy}phenyl)acetamide], for which the IC50 at HSD17B13 enzyme [1] is above 30 µM. On the same count and under the same terms, as for `COc1cccc(-c2cccc(Oc3ccc(F)c(NC(C)=O)c3)n2)c1F` [Example 107, N-(2-fluoro-5-{[6-(2-fluoro-3-methoxyphenyl)pyridin-2-yl]oxy}phenyl)acetamide], the figure is above 30 µM; as for `COc1cccc(-c2cccc(Oc3ccc(O)nc3)n2)c1F` [Example 108, 5-{[6-(2-fluoro-3-methoxyphenyl)pyridin-2-yl]oxy}-1,2-dihydropyridin-2-one], above 30 µM.

Consider `CNC(=O)c1cc(Oc2cccc(-c3cccc(OC)c3F)n2)ccc1F` [Example 109, 2-fluoro-5-{[6-(2-fluoro-3-methoxyphenyl)pyridin-2-yl]oxy}-N-methylbenzamide], for which, on HSD17B13 enzyme [1], the IC50 is above 30 µM. `COc1cc(Oc2cccc(-c3ccc4cn[nH]c4c3)n2)ccc1F` [Example 110, 6-[6-(4-fluoro-3-methoxyphenoxy)pyridin-2-yl]-2H-indazole] displayed an IC50 against HSD17B13 enzyme [1] above 30 µM. In turn, `COc1cccc(-c2cccc(Oc3ccc(F)c(NS(C)(=O)=O)c3)n2)c1F` [Example 111, N-(2-fluoro-5-((6-(2-fluoro-3-methoxyphenyl)pyridin-2-yl)oxy)phenyl) methanesulfonamide] had an IC50 on HSD17B13 enzyme [1] above 30 µM. Same read-out and setting: then `COc1cccc(-c2cccc(Oc3ccc(=O)n(C(F)F)c3)n2)c1F` [Example 112, 1-(difluoromethyl)-5-((6-(2-fluoro-3-methoxyphenyl)pyridin-2-yl)oxy)pyridin-2(1H)-one], with above 30 µM; and `O=S(=O)(Nc1cccc(-c2cccc(Oc3ccc(F)c(O)c3)n2)c1)C1CC1` [Example 113, N-(3-(6-(4-fluoro-3-hydroxyphenoxy)pyridin-2-yl)phenyl) cyclopropanesulfonamide], with 10 to 30 µM. On to `O=S(=O)(Nc1cccc(-c2cccc(Oc3ccc(F)c(O)c3)n2)c1F)C1CC1` [Example 114, N-{2-fluoro-3-[6-(4-fluoro-3-hydroxyphenoxy)pyridin-2-yl]phenyl} cyclopropanesulfonamide], for which the IC50 at HSD17B13 enzyme [1] lay within 5 to 10 µM. On HSD17B13 enzyme [2], `Oc1c(F)ccc(Oc2ccnc(-c3ccc(N4CCOCC4)cc3)n2)c1F` [Example 115, 2,6-difluoro-3-((2-(4-morpholinophenyl)pyrimidin-4-yl)oxy)phenol] displayed an IC50 of at most 0.1 µM. The same measure, in the same setting: as for `O=S1(=O)CCN(c2ccc(-c3nccc(Oc4ccc(F)c(O)c4F)n3)cc2)CC1` [Example 116, 4-(4-(4-(2,4-difluoro-3-hydroxyphenoxy)pyrimidin-2-yl)phenyl) thiomorpholine 1,1-dioxide], the figure is at most 0.1 µM; as for `Oc1c(Cl)ccc(Oc2ccnc(-c3ccc(N4CCOCC4)cc3)n2)c1F` [Example 117, 6-chloro-2-fluoro-3-((2-(4-morpholinophenyl)pyrimidin-4-yl)oxy)phenol], 0.1 to 0.5 µM; as for `Oc1c(Cl)ccc(Oc2ccnc(-c3ccc(N4CCOCC4)cc3)n2)c1Cl` [Example 118, 2,6-dichloro-3-((2-(4-morpholinophenyl)pyrimidin-4-yl)oxy)pheno], 0.5 to 1 µM.
